This note sets out measurements from US20230172849A1, “INHALED STATINS FOR TREATMENT OF VIRAL RESPIRATORY DISEASES” (priority 2020, published 2023).

Assay [1] relates to SARS-CoV-2. Kind of assay: combination therapy, viral load by RT-PCR (ORF1ab gene) in Calu-3 cells. Details: key to enhanced decrease of viral load, combination vs two single agents: Each combination that showed an enhanced decrease of viral load as compared with the two single agents is denoted by “E”; Combinations that showed a slight trend towards an enhanced decrease of viral load as compared with the two single agents is denoted by “(e)”; —. Format: cell-based. Conditions: for decrease of viral load, agent alone: FIG. 31, mixed with SARS-CoV-2 (MOI 0.01) 1 hour at room temperature, RT-PCR (ORF1ab) 24 hours post infection, of the control.

Assay [2] concerns the target SARS-CoV-2 Spike S1 (RBD) (Severe acute respiratory syndrome coronavirus 2, UniProt P0DTC2). Kind of assay: biochemical. In kind it is binding.
For assay [3], the system named is SARS-CoV-2. In kind it is cell-based.
Assay [4] concerns human bronchial epithelial cells (HBE1). As to the kind of experiment: depletion of total cellular cholesterol in HBE1 cells. Format: cell-based. Particulars: HBE1, 48 hours; 50-400 nM and 1-20 μM; concentrations marked (*) in FIGS. 1, 2; p<0.05. The protocol: Total cellular cholesterol was measured by spectrophotometry, and plotted as the ratio of absorbance to total protein in μg. […] Significant reductions in cholesterol content (≥50%, p<0.05) are indicated (*).

[5] abbreviates: Table 2, read-out: Affinity (nM) of binding to SARS-COV2 Spike protein.

“Also recorded” adds a separate entry of the source. Structures can show the parent of a compound that is named as a salt. Where two headings read alike, the source gives them in different places. A value given as a limit tells only on which side of the number the result lay.

For the molecule `C[C@@H]1C[C@H]2[C@@H]3CCC4=CC(=O)C=C[C@]4(C)[C@@]3(F)[C@@H](O)C[C@]2(C)[C@@]1(O)C(=O)CO` [Dexamethasone, dexamethasone], the “decrease of viral load, agent alone” value with SARS-CoV-2 [1] worked out at 46%.
In the case of `CC[C@H](C)C(=O)O[C@H]1C[C@H](O)C=C2C=C[C@H](C)[C@H](CC[C@@H](O)C[C@@H](O)CC(=O)O)[C@H]21` [INS101, Pravastatin Sodium], the “binding to SARS-COV-2 S-protein (in words)” value (“binding” below) in assay [2] (MST binding assay) is “weak binding; also recorded: none or very low affinity”. For the same molecule, the Remarks entry in assay [2] (Table 1, binding to SARS-CoV-2 S1) was “No interaction/weak binder”.
Regarding `CCC(C)(C)C(=O)O[C@H]1C[C@@H](C)C=C2C=C[C@H](C)[C@H](CC[C@@H]3C[C@@H](O)CC(=O)O3)[C@H]21` [INS102, Simvastatin], the “Average (percent cell viability)” value came to 5.506% with SARS-CoV-2 [3] (Case A: compound added 1 h after infection, 72 h contact, 0.1 uM); 7.304% in the assay with SARS-CoV-2 [3] (Case A: compound added 1 h after infection, 72 h contact, 1 uM); 17.48% with SARS-CoV-2 [3] (Case A: compound added 1 h after infection, 72 h contact, 10 uM); 6.427% in the assay on SARS-CoV-2 [3] (Case B: compound added 24 h after infection, 48 h contact, 0.1 uM); 9.597% in the assay on SARS-CoV-2 [3] (Case B: compound added 24 h after infection, 48 h contact, 1 uM); 11.85% with SARS-CoV-2 [3] (Case B: compound added 24 h after infection, 48 h contact, 10 uM). Also, the “Average (percent cell viability)” value in the assay with SARS-CoV-2 [3] (Case C: compound added 48 h after infection, 24 h contact, 0.1 uM) is listed as 3.967%; in the assay on SARS-CoV-2 [3] (Case C: compound added 48 h after infection, 24 h contact, 1 uM), 2.16%; in the assay with SARS-CoV-2 [3] (Case C: compound added 48 h after infection, 24 h contact, 10 uM), 6.117%; in the assay on SARS-CoV-2 [3] (Case D: pre-treated 6 h, then infected 72 h, 0.1 uM), 35.26%; with SARS-CoV-2 [3] (Case D: pre-treated 6 h, then infected 72 h, 1 uM), 31.9%; with SARS-CoV-2 [3] (Case D: pre-treated 6 h, then infected 72 h, 10 uM), 33.31%. In addition, the “Average (percent cell viability)” value in the assay with SARS-CoV-2 [3] (Case E: pre-treated 24 h, then infected 72 h, 0.1 uM) was −0.98%; in the assay on SARS-CoV-2 [3] (Case E: pre-treated 24 h, then infected 72 h, 1.0 uM), 29.28%; in the assay with SARS-CoV-2 [3] (Case E: pre-treated 24 h, then infected 72 h, 10.0 uM), 46.90%; in the assay with SARS-CoV-2 [3] (Case F: compound 1 h before infection (coinc 1 h), then virus 72 h, 0.1 uM) it was 10.1%; in the assay with SARS-CoV-2 [3] (Case F: compound 1 h before infection (coinc 1 h), then virus 72 h, 1 uM) it was 8.721%; in the assay on SARS-CoV-2 [3] (Case F: compound 1 h before infection (coinc 1 h), then virus 72 h, 10 uM), 19.4%. Moreover, the “enhanced decrease of viral load, combination vs two single agents” value (“enhanced decrease of viral load” for short) in the assay on SARS-CoV-2 [1] (statin 0.1 μM + Dex 0.1 μM) is recorded as “—”; with SARS-CoV-2 [1] (statin 0.1 μM + Dex 1 μM) it was “E”; in the assay on SARS-CoV-2 [1] (statin 0.1 μM + Dex 10 μM), “E”; in the assay on SARS-CoV-2 [1] (statin 0.1 μM + Remde 1), “—”; in the assay on SARS-CoV-2 [1] (statin 0.1 μM + Remde 10), “—”; with SARS-CoV-2 [1] (statin 0.1 μM + Remde 100) it was “—”. Besides, the “enhanced decrease of viral load” value with SARS-CoV-2 [1] (statin 1 μM + Dex 0.1 μM) was “E”; in the assay with SARS-CoV-2 [1] (statin 1 μM + Dex 1 μM) it was “E”; in the assay with SARS-CoV-2 [1] (statin 1 μM + Dex 10 μM), “—”; in the assay on SARS-CoV-2 [1] (statin 1 μM + Remde 1), “—”; with SARS-CoV-2 [1] (statin 1 μM + Remde 10), “—”; in the assay on SARS-CoV-2 [1] (statin 1 μM + Remde 100), “E”. The “enhanced decrease of viral load” value with SARS-CoV-2 [1] (statin 10 μM + Dex 0.1 μM) is on record as “—”; with SARS-CoV-2 [1] (statin 10 μM + Dex 1 μM), “—”; with SARS-CoV-2 [1] (statin 10 μM + Dex 10 μM), “—”; with SARS-CoV-2 [1] (statin 10 μM + Remde 1) it was “—”; in the assay on SARS-CoV-2 [1] (statin 10 μM + Remde 10) it was “—”; in the assay on SARS-CoV-2 [1] (statin 10 μM + Remde 100), “E”. In assay [4], the “reduction in cholesterol content” value is on record as at least 50%.
As for `CC(C)c1c(C(=O)Nc2ccccc2)c(-c2ccccc2)c(-c2ccc(F)cc2)n1CC[C@@H](O)C[C@@H](O)CC(=O)O` [INS104, Atorvastatin], the Kd in assay [2] and in assay [2] (read-out: Affinity (nM) of binding to SARS-COV2 Spike protein) was 234 to 456 nM each time. Moreover, the Remarks entry in assay [2] is on record as “Strong Binding”. The S/N in assay [2] is recorded as 8.5-8.7. Further, the “binding” value in assay [2] is recorded as “bind with SARS-COV-2 S-protein at nanomolar (nM) concentrations”. Also, the “decrease of viral load, agent alone” value in the assay with SARS-CoV-2 [1] was determined as 22%. Further, in the assay on SARS-CoV-2 [1] (FIGS. 30, 31, statin and SARS-CoV-2 (MOI 0.01) mixed 1 hour at room temperature, 24 hours post infection), the “decrease in viral load, combination with remdesivir or dexamethasone vs monotherapies” value was “synergistic”. Besides, the “enhanced decrease of viral load” value is on record as “—” in the assay with SARS-CoV-2 [1] (statin 0.2 μM + Dex 0.1 μM); “(e)” in the assay on SARS-CoV-2 [1] (statin 0.2 μM + Dex 1 μM); “—” in the assay on SARS-CoV-2 [1] (statin 0.2 μM + Dex 10 μM); “—” in the assay on SARS-CoV-2 [1] (statin 0.2 μM + Remde 1); “—” in the assay with SARS-CoV-2 [1] (statin 0.2 μM + Remde 10); “(e)” with SARS-CoV-2 [1] (statin 0.2 μM + Remde 100). Further, the “enhanced decrease of viral load” value in the assay with SARS-CoV-2 [1] (statin 1 μM + Dex 0.1 μM) is recorded as “—”; with SARS-CoV-2 [1] (statin 1 μM + Dex 1 μM), “E”; in the assay with SARS-CoV-2 [1] (statin 1 μM + Dex 10 μM), “(e)”; in the assay on SARS-CoV-2 [1] (statin 1 μM + Remde 1), “—”; in the assay with SARS-CoV-2 [1] (statin 1 μM + Remde 10) it was “(e)”; in the assay on SARS-CoV-2 [1] (statin 1 μM + Remde 100), “—”. Moreover, the “enhanced decrease of viral load” value in the assay on SARS-CoV-2 [1] (statin 5 μM + Dex 0.1 μM) is “—”; in the assay on SARS-CoV-2 [1] (statin 5 μM + Dex 1 μM), “synergistic enhancement and E”; in the assay with SARS-CoV-2 [1] (statin 5 μM + Dex 10 μM), “enhancement was maintained at a lower level and E”; in the assay on SARS-CoV-2 [1] (statin 5 μM + Remde 1), “—”; in the assay with SARS-CoV-2 [1] (statin 5 μM + Remde 10), “enhancement in the decrease of viral load and E”; in the assay with SARS-CoV-2 [1] (statin 5 μM + Remde 100) it was “—”.
`CC[C@H](C)C(=O)O[C@H]1C[C@@H](C)C=C2C=C[C@H](C)[C@H](CC[C@@H]3C[C@@H](O)CC(=O)O3)[C@H]21` [INS105, Lovastatin]: the Kd in assay [2] (setting [5]) is 529 to 929 nM.
In the case of `CCC(C)(C)C(=O)O[C@H]1C[C@@H](C)C=C2C=C[C@H](C)[C@H](CC[C@@H](O)C[C@@H](O)CC(=O)O)[C@H]21` [INS106, Simvastatin Hydroxy Acid, Ammonium Salt], the Kd in assay [2] (setting [5]) was 1570 to 2600 nM.
For `C[C@H](N[C@@H](CCc1ccccc1)C(=O)O)C(=O)N1CCC[C@H]1C(=O)O` [INS107], in assay [2] (MST binding assay), the “binding” value is “no binding is indicated”.
Take Hydroxy Simvastatin [INS102-S]: in assay [2] (MST binding assay), the “binding” value was “weak binding”.
